The subject of experiment [1] is Vascular endothelium MS-1 cells. As to the kind of experiment: Disruption of vascular endothelium cell adhesion (cell capillaries on Matrigel). Type of experiment: cell-based. The settings on record: 300 nM, 60 minutes. On the procedure: Following the addition of 300 nM compound C9 or an equivalent volume of DMSO carrier for 60 minutes, the extracellular matric plugs were imaged at 40× magnification by phase contrast microscopy.

For experiment [2] the test system is unchanged. As to the kind of experiment: Disruption of the microtubule cytoskeleton of vascular endothelium cells. Type of experiment: cell-based. The settings on record: 100 nM, 120 minutes. The text has this:
After staining with Hoescht, TRITC-phalloidin, anti-beta tubulin antibody and Alexafluor 488 nm secondary antibody, the cells were imaged at 400× magnification by epifluorescence microscopy.

Experiment [3] relates to HeLa cells expressing H2B-GFP. As to the kind of experiment: Inhibition of cell proliferation (GI50) by nuclear counts, IN Cell Analyser. Type of experiment: cell-based, human. The settings on record: HeLa; for Anti-proliferative activity (effect of substitution, in words): text comment on Table 3; for GI50: Homo sapiens, concentration causing 50% inhibition of cell proliferation, nuclear counts every 24 hours. On the procedure: Table 3 HeLa cells expressing H2B-GFP were plated in 96-well plates and exposed to concentrations ranging from 100 μM to […] of the indicated compounds C1-C78. The number of cells was then determined every 24 hours by imaging of the plates using an IN Cell Analyser (GE Healthcare), followed by measurement of the number of intact cell nuclei using Developer™ software (GE Healthcare). Drug concentrations that cause 50% inhibition of cell proliferation (GI50) were determined from the nuclear counts using GraphPad Prism software or ED50v10 freeware.

Experiment [4] relates to purified porcine brain tubulin. The experiment is described as follows: In vitro microtubule assembly, light scattering at 350 nm. Format: biochemical. As to conditions: 3 and 6 μM, 37° C. The procedure:
In vitro polymerisation of purified porcine brain tubulin at 37° C. in the presence of compound C9 (3 and 6 μM), 15 μM nocodazole, 2 μM vinblastine or an equal volume of carrier DMSO was measured over time as light scattering at 350 nm.

Experiment [5] has as its system HeLa cells expressing H2B-GFP. The experiment is described as follows: Induction of mitotic arrest (EC50), mitotic index by phospho-histone 3 staining. Format: cell-based. The settings on record: Homo sapiens, concentration for 50% induction of mitotic arrest, overnight, read-out: EC50 (mitosis) (HeLa). On the procedure: Parallel plates were treated overnight with the compounds to visualize the mitotic cells by staining with anti-phospho-histone 3 and Alexafluor 546 nm secondary antibodies after fixation with 4% paraformaldehyde. Following imaging of the nuclear GFP and phospho-histone 3 signals using an IN Cell Analyser (GE Healthcare), determination of the mitotic index by analysis of the images with Developer™ software (GE Healthcare) permitted estimation of the concentration that leads to 50% induction of the mitotic arrest (EC50). It can be seen that inhibition of cell proliferation and mitosis correlate well for the compounds tested.

The test system of experiment [6] is HeLa cells expressing H2B-GFP. As to the kind of experiment: Induction of apoptosis, Annexin V binding. Format: cell-based, human. As to conditions: overnight; 20 μM compound A1 or 100 nM paclitaxel. The procedure:
HeLa cells were exposed overnight to 20 μM compound A1 or 100 nM paclitaxel, stained with a fluorescent Annexin V marker of apoptosis and visualised by epifluorescence microscopy following fixation.
FIG. 3 The H2B-GFP-expressing HeLa cells were treated overnight with 20 μM compound A1 or 100 nM paclitaxel. The cells were then exposed to Annexin-V tagged with Alexafluor 546 nm and visualized using an epifluorescence microscope equipped for digital imaging following fixation with 4% para-formaldehyde.

In experiment [7] the test system is HeLa cells expressing H2B-GFP. As to the kind of experiment: Perturbation of mitotic spindle organisation and assembly, anti-β-tubulin staining. Format: cell-based, human. The settings on record: 20 μM, overnight. The procedure: HeLa cells stably expressing a green fluorescent marker of nuclear DNA (H2B-GFP) were exposed overnight to carrier (DMSO) or 20 μM compounds A1 and B3. The cells were then fixed with methanol, stained with mouse monoclonal anti-β-tubulin antibody and Alexafluor 546 nm goat anti-mouse antibody, and fluorescent signal visualised by microscopy. The open circle indicates a cell with a perturbed mitotic spindle while the arrow indicates a cell with a mostly disassembled mitotic spindle.
These cells were exposed overnight to carrier (0.1% (v/v) DMSO) or an equivalent volume of DMSO containing compounds A1 and B3 (final concentration in the culture medium was 20 μM). The cells were then briefly rinsed with phosphate-buffered saline (PBS) prior to fixation with 100% methanol at −20° C. The fixed cells were then stained with mouse monoclonal anti-β-tubulin antibody and Alexafluor 546 nm goat anti-mouse antibody (diluted 400× from commercial stocks into PBS containing 10 mg/ml bovine serum albumin (BSA)). The GFP and 546 nm fluorescence signals were then visualised using a microscope equipped for digital confocal epifluorescence imaging. The open circle in FIG. 1 represents a cell with a perturbed mitotic spindle while the arrow points to a cell with a mostly unassembled mitotic spindle.

The test system of experiment [8] is HeLa cells expressing H2B-GFP. As to the kind of experiment: Induction of mitotic arrest, phase-contrast microscopy. As to conditions: overnight; 20 μM compound B3 or 100 nM paclitaxel. Type of experiment: cell-based, human. On the procedure:
(A) HeLa cells were exposed overnight to carrier (DMSO), 20 μM compound B3 or 100 nM paclitaxel, and visualized by phase-contrast microscopy.
FIG. 2 (A) The H2B-GFP-expressing HeLa cells (grown under identical culture conditions as described in Example 1) were exposed overnight to carrier (0.1% (v/v) DMSO), 20 μM compound B3 or 100 nM paclitaxel in DMSO. The cells were then visualized using a phase-contrast microscope equipped for digital imaging.

For experiment [9], the system named is HeLa cells expressing H2B-GFP. As to the kind of experiment: Induction of mitotic arrest, phospho-histone 3 marker of mitosis. Format: cell-based, human. The settings on record: 4 hours; 20 μM compound or 100 nM paclitaxel. The procedure:
(B) HeLa cells exposed for 4 hours to carrier (DMSO), 20 μM compound A1 or 100 nM paclitaxel were fixed and stained with anti-phospho-histone 3 marker of mitosis followed by fluorescent secondary antibody. The percentage of cells positive for phospho-histone 3 was determined by digital imaging and analysis of the fluorescence signals (B).
FIG. 2 (B) The H2B-GFP-expressing HeLa cells were treated for 4 hours with carrier (0.1% (v/v) DMSO), 20 μM compound A1 or 100 nM paclitaxel in DMSO. The cells were then briefly rinsed with phosphate-buffered saline (PBS) prior to fixation with 4% para-formaldehyde at ambient temperature. The fixed cells were then stained with mouse monoclonal anti-phospho-histone 3 antibody and Alexafluor 546 nm goat anti-mouse antibody (diluted 400× from commercial stocks into PBS containing 10 mg/ml bovine serum albumin (BSA)). The GFP and 546 nm fluorescence signals were then captured with an IN Cell Analyser 1000 (GE Healthcare) and the percentage of cells stained with the anti-phospho-histone 3 antibody determined using Developer™ software (GE Healthcare).

The test system of experiment [10] is HeLa cells expressing H2B-GFP. As to the kind of experiment: Dose-dependent inhibition of cell proliferation, cell counts over 0-96 h. Type of experiment: cell-based, human. As to conditions: 0.2-20 μM. The procedure:
FIG. 4. Dose-dependent inhibition of cell proliferation by compound B3. The proliferation of HeLa cells at decreasing concentrations (from 20 to 0.2 μM) of polokinase inhibitor (PKi), KSP inhibitor (STLC) and compound B3 was determined (relative to paclitaxel at 400 to 10 nM) by counting of the cells over time (0-96 h).
FIG. 4 HeLa cells expressing H2B-GFP were plated in multi-well plates and exposed to 0.2-20 μM of polokinase inhibitor (PKi), KSP inhibitor (STLC) and compound B3, or 10-400 nM of paclitaxel. The number of cells at 0, 24, 48, 72 and 96 h of treatment was determined by imaging of the GFP signal in the plates with an IN Cell Analyser (GE Healthcare) followed by measurement of the number of intact cell nuclei using Developer™ software (GE Healthcare).

Read-outs that look alike come from different tables or passages of the source.

The term GI50 denotes the concentration at which growth is held to half of that of the control. Low readings indicate greater sensitivity of the cells, high ones lower sensitivity of the cells. One may read the EC50 as the concentration needed to bring the measured effect to its halfway point.

Consider `COc1ccccc1/C=N/NC(=S)Nc1ccccc1C(F)(F)F` [C9], for which, in [1], the “Disruption of vascular endothelium cell adhesion” value is “Disruption of vascular endothelium cell adhesion”. For the same molecule, in experiment [2], the “Disruption of the microtubule cytoskeleton” value is reported as “Disruption of the microtubule cytoskeleton of vascular endothelium cells”. Also, in experiment [3], the “Anti-proliferative activity (effect of substitution, in words)” value (shortened to “Anti-proliferative activity”) is on record as “greatly increase the anti-proliferative activity” and the GI50 was 10 nM. Further, the “Inhibition of in vitro microtubule assembly” value in experiment [4] is on record as “Dose-dependent inhibition of in vitro microtubule assembly”. Moreover, the concentration giving a half-maximal response (EC50) in [5] (values in nM) was 10 nM.
Molecule `COc1ccccc1/C=N/NC(=S)Nc1cccc(C)c1` [C1] returned a GI50 in experiment [3] of 700 nM. In addition, the concentration for a half-maximal effect (EC50) in [5] (values given in μM) was ~1000 nM.
Molecule `COc1ccccc1/C=N/NC(=S)Nc1ccccc1Cl` [C8] returned a concentration for 50% growth inhibition (GI50) in experiment [3] of 100 nM. For the same molecule, in experiment [5] (values in nM), the 50% effective concentration (EC50) was 300 nM.
Take `COc1ccccc1/C=N/NC(=S)Nc1ccc(C)cc1` [C18]: the concentration for 50% growth inhibition (GI50) in [3] came out at 700 nM. In experiment [5] (values in nM), the half-maximal effective concentration (EC50) was ≥ 30 nM.
As for `Fc1ccc(NC(=S)N/N=C/c2ccccc2)cc1` [A1, BENZALDEHYDE N-(4-FLUOROPHENYL)THIOSEMICARBAZONE], the “Induction of apoptotic cells (Annexin-V binding)” value in [6] was “induction of apoptotic cells”. Moreover, the “Effect on mitotic spindle organisation and assembly” value in experiment [7] is “substantial alterations in the spatial organisation of mitotic spindle fibres and chromosomes”.
`COc1ccccc1/C=N/NC(=S)Nc1ccccc1OC` [C15]: in experiment [3], the “Anti-proliferative activity” value is given as “greatly increase the anti-proliferative activity” and growth was halved (GI50) at 25 nM. Besides, in [5] (values in nM), the EC50 was ~70 nM.
As to `COc1ccccc1/C=N/NC(=S)Nc1ccc(Cl)cc1Cl` [CB75], the “Anti-proliferative activity” value in [3] is given as “greatly increase the anti-proliferative activity”. For the same molecule, in experiment [5] (values in nM), the concentration for a half-maximal effect (EC50) amounted to 20 nM.
As to `CC(=O)O[C@H]1C(=O)[C@@]2(C)[C@H]([C@H](OC(=O)c3ccccc3)[C@]3(O)C[C@H](OC(=O)[C@H](O)[C@@H](NC(=O)c4ccccc4)c4ccccc4)C(C)=C1C3(C)C)[C@]1(OC(C)=O)CO[C@@H]1C[C@@H]2O` [paclitaxel, reference compound], in [6], the “Induction of apoptotic cells (Annexin-V binding)” value is “induction of apoptotic cells”. For the same molecule, the “Accumulation of cells with mitotic phenotype” value in experiment [8] was “pronounced accumulation of round and translucent cells representing the mitotic phenotype”. For the same molecule, the “Accumulation of cells stained with phospho-histone 3 marker of mitosis” value in [9] is on record as “accumulation of cells that are stained with the phospho-histone 3 marker of mitosis”.
In the case of `COc1ccccc1/C=N/NC(=S)Nc1cccc(C)c1` [B3, 2-METHOXYBENZALDEHYDE N-(3-METHYLPHENYL)THIOSEMICARBAZONE], the “Accumulation of cells with mitotic phenotype” value in experiment [8] was “pronounced accumulation of round and translucent cells representing the mitotic phenotype”. Further, the “Effect on mitotic spindle organisation and assembly” value in [7] is on record as “profoundly perturbs spindle function by blocking the assembly of spindle microtubule fibres”. Also, the “Concentration potently blocking cell proliferation” value in [10] is > 1 µM. Further, the “Accumulation of cells stained with phospho-histone 3 marker of mitosis” value in experiment [9] is recorded as “accumulation of cells that are stained with the phospho-histone 3 marker of mitosis”.
Take `CCOc1ccccc1NC(=S)N/N=C/c1ccccc1OC` [CB34]: in experiment [3], the “Anti-proliferative activity” value is recorded as “greatly increase the anti-proliferative activity” and the GI50 is 11 nM. For the same molecule, in experiment [5] (values in nM), the concentration for a half-maximal effect (EC50) was 10 nM.
As to `COc1ccccc1/C=N/NC(=S)Nc1ccccc1C` [C6], it took 90 nM to inhibit growth in experiment [3] by half (GI50). The EC50 in experiment [5] (values in nM) worked out at 150 nM.
As to `COc1ccc(NC(=S)N/N=C/c2ccccc2OC)cc1` [C10], in [3], growth was halved (GI50) at 2000 nM. Also, the half-maximal effective concentration (EC50) in experiment [5] (values given in μM) is > 1000 nM.
Consider `COc1ccccc1/C=N/NC(=S)Nc1cc(Cl)ccc1OC` [CB31], for which the concentration for 50% growth inhibition (GI50) in experiment [3] came to 15 nM. Moreover, the EC50 in [5] (values in nM) is 50 nM.

The record behind these values is patent publication US20120238604A1, “CYTOTOXIC COMPOUNDS” (Molecular Discovery Systems, priority 2009, published 2012).
